In patent US12677825B2, “Composition for protecting islet transplantation” (LG CHEM, LTD., priority 2020, dated 2026):

Tests used:
[1] = system: islets from hIAPP+/− FVB/N mice; test: Alamar blue viability of islets isolated with or without Compound 1; assay type: cell-based, mouse; conditions: 20 μM Compound 1 during islet isolation, vs non-treated group; FIG. 1A
Method: (§1) Mouse islets were isolated from 10- to 12-week-old hIAPP^+/− and C57BL/6 mice as described previously. Briefly, 0.8 mg/mL of collagenase P (Roche, Indianapolis, IN, USA) in Hank's buffered saline solution (HBSS, Sigma-Aldrich, St. Louis, MO, USA) with or without 20 μM Compound 1 were infused into the common bile duct for mouse pancreas digestion. Islets were purified from the digested pancreas using a Ficoll (Biochrom, Berlin, Germany) gradient and washed several times with 1 xHBSS. Isolated islets were cultured while free-floating in 10 mL of RPMI 1640 (Gibco, Grand Island, NY, USA). The medium was supplemented with 10% heat-inactivated FBS (fetal bovine serum) at 37° C. and 5% CO2 incubation prior to the ex vivo and in vivo studies.
The viability of islets was evaluated using Alamar blue staining according to the manufacturer's protocol (Invitrogen, Grand Island, NY, USA). Briefly, islets isolated from hIAPP^+/− mice were cultured at a density of 100 islet equivalents (IE) per well in 24-well plates with RPMI 1640 containing 10% FBS and 0.625% BSA with or without Compound 1. […] The fluorescence intensity of each well was measured at 570/585 nm (excitation/emission) using a GloMax-Multi Plus Detection System (Promega, Fitchburg, WI, USA), and the values were normalized to a blank.

[2] = system: islets from hIAPP+/− FVB/N mice; test: Glucose-stimulated insulin secretion (GSIS) assay after islet isolation; assay type: cell-based, mouse; conditions: 20 μM Compound 1 during islet isolation, vs non-treated group; FIG. 1E
Method: as §1
After hand-picking and washing with PBS, islets were seeded on 12-mm diameter insert wells (Merck Millipore, Billerica, MA, USA) with 10 islets per well, and preincubated with 60 mg/dL glucose in Kreb's-Ringer buffer (KRB: 129 mM NaCl, 4.8 mM KCl, 2.5 mM CaCl2, 1.2 mM KH2PO4, 5 mM NaHCO3, 10 mM HEPES, and 0.2% BSA) for […] at 37° C. After washing, islets were incubated with 300 mg/dL glucose-KRB for 1 hour, followed by additional incubation with 60 mg/dL glucose-KRB for 1 hour. Insulin release into the supernatant by the mouse islets was measured by ELISA (ALPCO, Salem, NH, USA) and a multiplex kit (Merck Millipore), respectively.

[3] = system: c-Jun N-terminal kinases, HMGB1, IL-1β, IL-6, TNF-α; test: Real-time qRT-PCR of c-Jun, HMGB1 and proinflammatory cytokines after islet isolation; assay type: cell-based, mouse; conditions: after isolation with 20 μM Compound 1, vs non-treated group; FIG. 1F
Method: as §1, with “The medium was supplemented with 10% heat-inactivated FBS (fetal bovine serum) at 37° C. and 5% CO2 incubation prior to the ex vivo and in vivo studies.” left out
Harvested islets were treated with 500 μL Trizol (Life Technologies, Grand Island, NY, USA), and then 100 μL of chloroform was added. […] RNA purity was assessed by NanoDrop (Thermo Scientific, Wilmington, DE, USA) and agarose gel electrophoresis. […] Total RNA was reverse transcribed to quantify the expression of genes using the SuperScript™ II reverse transcription system (Life Technologies) according to the manufacturer's protocol.
Real-time qRT-PCR was performed using gene-specific primer pairs (Table 1). […] To quantify the expression level of genes, real-time PCR was performed using a SYBR premix kit (Takara Bio Inc., Tokyo, Japan) and an ABI Prism 7000 (Applied Biosystems, Foster City, CA, USA) according to the manufacturers' protocols.

[4] = system: wild type C57BL/6 mouse islets; test: Effects of Compound 1 during isolation on wild type mouse islets (viability, function, cytokine expression); assay type: cell-based; conditions: Compound 1 during islet isolation; FIG. 2
Method: as §1

[5] = system: RINm5F cells; test: Serum-deprived culture of RINm5F cells (viability, ROS); assay type: cell-based, rat; conditions: dose-dependent 0.1 μM to 20 μM
Method: Islets were isolated from heterozygous human islet amyloid polypeptide transgenic (hIAPP^+/−)FVB/N mice (Jackson Laboratory, Bar Harbor, ME, USA), […] mice (Orientbio, Sungnam, Korea), and cynomolgus monkeys (Macaca fascicularis; Orientbio, Sungnam, Korea). For additional in vitro studies, rat insulinoma cells (RINm5F cells) were treated with or without Compound 1 during culture under tert-butyl hydroperoxide (tBHP) exposure or serum deprivation condition. RINm5F cells were suspended in DMEM medium (Gibco, Grand Island, NY, USA) containing 100 IU/mL penicillin and 100 μg/mL streptomycin, and cultured at 37° C. in a fully humidified 5% CO2 atmosphere. All experimental protocols in this study were approved by the Institutional Animal Care and Use Committee (IACUC) of Samsung Biomedical Research Institute.

[6] = system: islet grafts in STZ-induced diabetic hIAPP+/− FVB/N mice; test: Amyloid accumulation in islet grafts (thioflavin S staining); assay type: in vivo, mouse; conditions: islets cultured 72 hours with Compound 1, vs control group; FIG. 7G
Method: A marginal mass renal subcapsular islet transplantation model was used to assess the in vivo islet function of hIAPP^+/− mice. To induce diabetes, 180 mg/kg of streptozotocin (STZ, Sigma-Aldrich) was administered to 8- to 10-week-old FVB/N mice. Mice were considered to have diabetes when two consecutive blood glucose level readings were higher than 300 mg/dL. Equal amounts (400 IEQ of islets per recipient) of islets isolated from hIAPP^+/− mice were allocated to the following two groups: culture medium supplemented with 0.625% BSA (BSA group) and 0.625% BSA plus Compound 1 (BSA+Compound 1 group) to evaluate the combined effect of Compound 1 on islet mass and function during ex vivo culture. After culture for 72 hours, islets were transplanted into the renal subscapular space of diabetic hIAPP^+/− mice. The IE number was calculated using the Ricordi algorithm by classifying islets according to their diameter. After islet transplantation, non-fasting blood glucose levels were measured three times a week for the first 2 weeks and twice a week for the last 2 weeks. […]

For O=S1(=O)CCN(Cc2cc(NC3CCOCC3)c3[nH]c(-c4ccccc4)cc3c2)CC1 [Compound 1], the “relative ex vivo cell viability assessed by Alamar blue assay” value [1] was “significantly increased”, the “stimulation index in GSIS assay” value [2] was “comparable values between two groups” and the “transcriptional expression of c-Jun N-terminal kinases, HMGB1, IL-1β, IL-6 and TNF-α” value [3] was “significantly decreased”. The “reproduction of isolation results (viability, function, pro-inflammatory cytokine expression) in wild type islets” value [4] was “reproduced”, the relative cell viability ([5]; serum deprivation, FIG. 4C) was “significantly increased” and the “serum deprivation-induced ROS” value ([5]; serum-deprived culture, FIG. 4E) was “decreased”. The “proportion of accumulation of amyloid in sections of islet grafts” value [6] was “significantly reduced”.
